This note sets out measurements from patent US20180065917A1, “IMMUNE CHECKPOINT INHIBITORS, COMPOSITIONS AND METHODS THEREOF” (Polaris Pharmaceuticals, Inc., priority 2016, published 2018).

Where a name gives a salt, the structure may show the parent alone.

In one series the target is T1, PD-L1/PD-1 complex formation (Homo sapiens, UniProt Q9NZQ7).
T1 construct: purchased BPS Bioscience
T1 sequence (Q9NZQ7 19-239 limits assumed, one chain of several): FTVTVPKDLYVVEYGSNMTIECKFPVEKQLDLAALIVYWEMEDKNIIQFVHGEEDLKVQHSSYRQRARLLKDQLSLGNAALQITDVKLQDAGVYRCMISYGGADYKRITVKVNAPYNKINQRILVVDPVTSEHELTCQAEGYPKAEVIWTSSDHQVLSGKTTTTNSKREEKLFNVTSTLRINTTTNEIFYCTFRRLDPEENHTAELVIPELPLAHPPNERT
Briefly: PD-L1/PD-1 Interaction Assay (ELISA platform). Format: binding. The note with it: human PD-1-Fc coated plates, PD-L1-Fc-biotin 0.1 μg/ml, compounds pre-incubated 2 hours. Here is the method:
The ability of compounds to block PD-L1/PD-1 complex formation was evaluated using biochemical interaction assay based on the ELISA platform.
EIA/RIA high binding 96-well plates (Costar) were coated with human PD-1-Fc protein diluted in PBS to 0.5 μg/ml overnight at 4° C. The PD-1-Fc coated plates were washed in PBST and blocked in blocking buffer (2% BSA in PBST). Serially diluted compounds were pre-incubated with PD-L1-Fc-biotin (0.1 μg/ml final) for 2 hours on a shaker at room temperature. The PD-1-Fc coated plates were washed with PBST and solutions containing PD-L1 and compounds were added to the plates. The PD-1-Fc coated plates were incubated with PD-L1 and compound solution for 2 hours on a shaker at room temperature. After the incubation unbound PD-L1 was washed away with PBST and plates were incubated with the blocking buffer for 10 minutes. The bound PD-L1-Fc-biotin was detected with streptavidin-HRP and TMB substrate. The plates were read at OD450 nm in a plate reader (i3 from Molecular Devices) and percentages of inhibition of PD-L1/PD-1 complex formation were calculated.
PD-1-Fc protein was made at Polaris and PD-L1-Fc was purchased from BPS Bioscience.
(In general: An ELISA detects its analyte on a solid surface through an enzyme-linked reagent.)
As a reminder, the IC50 is the concentration that inhibits the measured activity by half. The low end stands for inhibition by little substance, the high end for a need for much substance. Regarding `Cc1c(COc2ccc(CN3CCCC[C@H]3C(=O)O)cc2C(F)F)cccc1-c1cccc(COc2ccc(CN3CCCC[C@H]3C(=O)O)cc2C(F)F)c1C` [Example 29, (2S,2′S)-1,1′-(((((2,2′-Dimethyl-[1,1′-biphenyl]-3,3′-diyl)bis(methylene))bis(oxy))bis(3-(difluoromethyl)-4,1-phenylene))bis(methylene))bis(piperidine-2-carboxylic acid) di-trifluoroacetic acid salt], the IC50 was in the range of 0.1 to 10 nM. The same measure, in the same setting: for `Cc1c(COc2ccc(CN(CC(=O)O)CC(=O)O)cc2Br)cccc1-c1cccc(COc2ccc(CN(CC(=O)O)CC(=O)O)cc2Br)c1C` [Example 30, 2,2′,2″,2′″-((((((2,2′-Dimethyl-[1,1′-biphenyl]-3,3′-diyl)bis(methylene))bis(oxy))bis(3-bromo-4,1-phenylene))bis(methylene))bis(azanetriyl))tetraacetic acid di-trifluoroacetic acid salt] the value was 110 to 1000 nM. Consider `Cc1c(COc2ccc(CN(CCO)CCO)cc2Br)cccc1-c1cccc(COc2ccc(CN(CCO)CCO)cc2Br)c1C` [Example 31, 2,2′,2″,2′″-((((((2,2′-Dimethyl-[1,1′-biphenyl]-3,3′-diyl)bis(methylene))bis(oxy))bis(3-bromo-4,1-phenylene))bis(methylene))bis(azanetriyl))tetrakis(ethan-1-ol) di-trifluoroacetic acid salt], for which the IC50 was 11 to 100 nM. Same read-out and setting: for `Cc1c(COc2ccc(CNC(CO)CO)cc2Br)cccc1-c1cccc(COc2ccc(CNC(CO)CO)cc2Br)c1C` [Example 32, 2,2′-((((((2,2′-Dimethyl-[1,1′-biphenyl]-3,3′-diyl)bis(methylene))bis(oxy))bis(3-bromo-4,1-phenylene))bis(methylene))bis(azanediyl))bis(propane-1,3-diol) di-trifluoroacetic acid salt] the value was 0.1 to 10 nM.

`Cc1c(COc2ccc(CNC(C)(CO)CO)cc2Br)cccc1-c1cccc(COc2ccc(CNC(C)(CO)CO)cc2Br)c1C` [Example 33, 2,2′-((((((2,2′-Dimethyl-[1,1′-biphenyl]-3,3′-diyl)bis(methylene))bis(oxy))bis(3-bromo-4,1-phenylene))bis(methylene))bis(azanediyl))bis(2-methylpropane-1,3-diol) di-trifluoroacetic acid salt]: the half-inhibitory concentration (IC50) was 0.1 to 10 nM.

Test system in a further series: not given
Assay: not given
Settings: not given
The term melting point denotes the temperature of the solid-liquid transition. Consider `Cc1c(COc2ccc(CNCCO)cc2Br)cccc1-c1cccc(COc2ccc(CNCCO)cc2Br)c1C` (as salt: trifluoroacetic acid salt) [Example 5, 2,2′-((((((2,2′-Dimethyl-[1,1′-biphenyl]-3,3′-diyl)bis(methylene))bis(oxy))bis(3-bromo-4,1-phenylene))bis(methylene))bis(azanediyl))bis(ethan-1-ol) di-trifluoroacetic acid salt], for which the melting point fell in the range of 136 to 140 °C. The same measure, in the same setting: to `Cc1c(COc2ccc(CNC(C)(C)C(=O)O)cc2Br)cccc1-c1cccc(COc2ccc(CNC(C)(C)C(=O)O)cc2Br)c1C` (as salt: trifluoroacetic acid salt) [Example 14, 2,2′-((((((2,2′-Dimethyl-[1,1′-biphenyl]-3,3′-diyl)bis(methylene))bis(oxy))bis(3-bromo-4,1-phenylene))bis(methylene))bis(azanediyl))bis(2-methylpropanoic acid) di-trifluoroacetic acid salt] belongs 230 to 234 °C; to `Cc1c(COc2ccc(CN[C@@H](C)C(=O)O)cc2Br)cccc1-c1cccc(COc2ccc(CN[C@@H](C)C(=O)O)cc2Br)c1C` (as salt: trifluoroacetic acid salt) [Example 15, (2S,2′S)-2,2′-((((((2,2′-Dimethyl-[1,1′-biphenyl]-3,3′-diyl)bis(methylene))bis(oxy))bis(3-bromo-4,1-phenylene))bis(methylene))bis(azanediyl))dipropionic acid di-trifluoroacetic acid salt], 243 to 247 °C.

Take `Cc1c(COc2ccc(CN[C@H](C)C(=O)O)cc2Br)cccc1-c1cccc(COc2ccc(CN[C@H](C)C(=O)O)cc2Br)c1C` (as salt: trifluoroacetic acid salt) [Example 16, (2R,2′R)-2,2′-((((((2,2′-Dimethyl-[1,1′-biphenyl]-3,3′-diyl)bis(methylene))bis(oxy))bis(3-bromo-4,1-phenylene))bis(methylene))bis(azanediyl))dipropionic acid di-trifluoroacetic acid salt]: the melting point was in the range of 186 to 190 °C. Consider `Cc1c(COc2ccc(CN[C@H](CO)C(=O)O)cc2Br)cccc1-c1cccc(COc2ccc(CN[C@H](CO)C(=O)O)cc2Br)c1C` (as salt: trifluoroacetic acid salt) [Example 17, (2R,2′R)-2,2′-((((((2,2′-Dimethyl-[1,1′-biphenyl]-3,3′-diyl)bis(methylene))bis(oxy))bis(3-bromo-4,1-phenylene))bis(methylene))bis(azanediyl))bis(3-hydroxypropanoic acid) di-trifluoroacetic acid salt], for which the melting point was 156 to 160 °C. For the compound `Cc1c(COc2ccc(CN[C@@H](C(=O)O)[C@H](C)O)cc2Br)cccc1-c1cccc(COc2ccc(CN[C@@H](C(=O)O)[C@H](C)O)cc2Br)c1C` (as salt: trifluoroacetic acid salt) [Example 18, (2R,2′R,3S,3′S)-2,2′-((((((2,2′-Dimethyl-[1,1′-biphenyl]-3,3′-diyl)bis(methylene))bis(oxy))bis(3-bromo-4,1-phenylene))bis(methylene))bis(azanediyl))bis(3-hydroxybutanoic acid) di-trifluoroacetic acid salt], the melting point was 227 to 231 °C. The same measure, in the same setting: for `C#Cc1cc(CN2CCCC[C@H]2C(=O)O)ccc1OCc1cccc(-c2cccc(COc3ccc(CN4CCCC[C@H]4C(=O)O)cc3C#C)c2C)c1C` (as salt: trifluoroacetic acid salt) [Example 26, (2S,2′S)-1,1′-(((((2,2′-Dimethyl-[1,1′-biphenyl]-3,3′-diyl)bis(methylene))bis(oxy))bis(3-ethynyl-4,1-phenylene))bis(methylene))bis(piperidine-2-carboxylic acid) di-trifluoroacetic acid salt] the value was 175 °C (dec.); for `CCc1cc(CN2CCCC[C@H]2C(=O)O)ccc1OCc1cccc(-c2cccc(COc3ccc(CN4CCCC[C@H]4C(=O)O)cc3CC)c2C)c1C` (as salt: trifluoroacetic acid salt) [Example 27, (2S,2′S)-1,1′-(((((2,2′-Dimethyl-[1,1′-biphenyl]-3,3′-diyl)bis(methylene))bis(oxy))bis(3-ethyl-4,1-phenylene))bis(methylene))bis(piperidine-2-carboxylic acid) di-trifluoroacetic acid salt], 131 to 135 °C; for `CSc1cc(CN2CCCC[C@H]2C(=O)O)ccc1OCc1cccc(-c2cccc(COc3ccc(CN4CCCC[C@H]4C(=O)O)cc3SC)c2C)c1C` (as salt: trifluoroacetic acid salt) [Example 28, (2S,2′S)-1,1′-(((((2,2′-Dimethyl-[1,1′-biphenyl]-3,3′-diyl)bis(methylene))bis(oxy))bis(3-(methylthio)-4,1-phenylene))bis(methylene))bis(piperidine-2-carboxylic acid) di-trifluoroacetic acid salt], 134 to 138 °C. On the same count and under the same terms, to `Cc1c(COc2ccc(CN3CCCC[C@H]3C(=O)O)cc2C(F)F)cccc1-c1cccc(COc2ccc(CN3CCCC[C@H]3C(=O)O)cc2C(F)F)c1C` (as salt: trifluoroacetic acid salt) [Example 29, (2S,2′S)-1,1′-(((((2,2′-Dimethyl-[1,1′-biphenyl]-3,3′-diyl)bis(methylene))bis(oxy))bis(3-(difluoromethyl)-4,1-phenylene))bis(methylene))bis(piperidine-2-carboxylic acid) di-trifluoroacetic acid salt] belongs 142 to 146 °C. For `Cc1c(COc2ccc(CN(CC(=O)O)CC(=O)O)cc2Br)cccc1-c1cccc(COc2ccc(CN(CC(=O)O)CC(=O)O)cc2Br)c1C` (as salt: trifluoroacetic acid salt) [Example 30, 2,2′,2″,2′″-((((((2,2′-Dimethyl-[1,1′-biphenyl]-3,3′-diyl)bis(methylene))bis(oxy))bis(3-bromo-4,1-phenylene))bis(methylene))bis(azanetriyl))tetraacetic acid di-trifluoroacetic acid salt], the melting point was in the range of 223 to 227 °C. Still for that read-out and setting: for `Cc1c(COc2ccc(CN(CCO)CCO)cc2Br)cccc1-c1cccc(COc2ccc(CN(CCO)CCO)cc2Br)c1C` (as salt: trifluoroacetic acid salt) [Example 31, 2,2′,2″,2′″-((((((2,2′-Dimethyl-[1,1′-biphenyl]-3,3′-diyl)bis(methylene))bis(oxy))bis(3-bromo-4,1-phenylene))bis(methylene))bis(azanetriyl))tetrakis(ethan-1-ol) di-trifluoroacetic acid salt] the value was 118 to 122 °C.

In turn, `Cc1c(COc2ccc(CNC(CO)CO)cc2Br)cccc1-c1cccc(COc2ccc(CNC(CO)CO)cc2Br)c1C` (as salt: trifluoroacetic acid salt) [Example 32, 2,2′-((((((2,2′-Dimethyl-[1,1′-biphenyl]-3,3′-diyl)bis(methylene))bis(oxy))bis(3-bromo-4,1-phenylene))bis(methylene))bis(azanediyl))bis(propane-1,3-diol) di-trifluoroacetic acid salt] came in with a melting point of 148 to 152 °C.
